{
  "source": "patent US12331040B2",
  "about": "(Karyopharm Therapeutics Inc., priority 2013, dated 2025)",
  "assay_in_all_cases": "MTT cell proliferation assay",
  "type_in_all_cases": "cell-based",
  "key": {"A549 cells": {"test_system": "A549 cells", "settings": "Homo sapiens, 72-hour MTT", "protocol": "(§1) The MTT cell proliferation assay was used to study the cytotoxic properties of the compounds. The assay was performed according to the method described by Roche Molecular Biochemicals, with minor modifications. The assay is based on the cleavage of the tetrazolium salt, MTT, in the presence of an electron-coupling reagent. The water-insoluble formazan salt produced must be solubilized in an additional step. Cells grown in a 96-well tissue culture plate were incubated with the MTT solution for approximately 4 hours. After this incubation period, a water-insoluble formazan dye formed. After solubilization, the formazan dye was quantitated using a scanning multi-well spectrophotometer (ELISA reader). […] The cells were seeded at 5,000-10,000 cells in each well of 96-well plate in 100 μL of fresh culture medium and were allowed to attach overnight. The stock solutions of the compounds were diluted in 100 μL cell culture medium to obtain eight concentrations of each test compound, ranging from 1 nM to 30 μM. […] All optical densities were measured at 490 nm using a Vmax Kinetic Microplate Reader (Molecular Devices). In most cases, the assay was performed in duplicate and the results were presented as a mean percent inhibition to the negative control±SE. The following formula was used to calculate the percent of inhibition: Inhibition (%)=(1−(ODo/OD))×100.\n(§2) Compounds 504, 510, 525 and 585 were further tested against selected solid and hematological cancer cell lines and selected normal cell lines in a 72-hour MTT cell proliferation assay."}, "ANBL-6 cells": {"test_system": "ANBL-6 cells", "settings": "Homo sapiens, 72-hour MTT", "protocol": "as §1, §2"}, "ARPE-19 cells": {"test_system": "ARPE-19 cells", "settings": "Homo sapiens, 72-hour MTT", "protocol": "as §1, §2"}, "BL-40 cells": {"test_system": "BL-40 cells", "settings": "72-hour MTT", "protocol": "as §1, §2"}, "BT-474 cells": {"test_system": "BT-474 cells", "settings": "Homo sapiens, 72-hour MTT", "protocol": "as §1, §2"}, "Calu-3 cells": {"test_system": "Calu-3 cells", "settings": "Homo sapiens, 72-hour MTT", "protocol": "as §1, §2"}, "DoHH-2 cells": {"test_system": "DoHH-2 cells", "settings": "Homo sapiens, 72-hour MTT", "protocol": "as §1, §2"}, "HCC-1143 cells": {"test_system": "HCC-1143 cells", "settings": "Homo sapiens, HCC1143, 72-hour MTT", "protocol": "as §1, §2"}, "HCC-1428 cells": {"test_system": "HCC-1428 cells", "settings": "Homo sapiens, HCC1428, 72-hour MTT", "protocol": "as §1, §2"}, "HCC-202 cells": {"test_system": "HCC-202 cells", "settings": "HCC202, 72-hour MTT", "protocol": "as §1, §2"}, "HCC-2935 cells": {"test_system": "HCC-2935 cells", "settings": "Homo sapiens, HCC2935, 72-hour MTT", "protocol": "as §1, §2"}, "HCT116 cells": {"test_system": "HCT116 cells", "settings": "Homo sapiens, HCT-116, 72-hour MTT", "protocol": "as §1, §2"}, "HEL.92.1.7 cells": {"test_system": "HEL.92.1.7 cells", "settings": "Homo sapiens, 72-hour MTT", "protocol": "as §1, §2"}, "HT1080 cells": {"test_system": "HT1080 cells", "settings": "Homo sapiens, HT-1080, 72-hour MTT", "protocol": "as §1, §2"}, "HeLa cells": {"test_system": "HeLa cells", "settings": "Homo sapiens, 72-hour MTT", "protocol": "as §1, §2"}, "Hs738.st cells": {"test_system": "Hs738.st cells", "settings": "72-hour MTT", "protocol": "as §1, §2"}, "IMR-90 cells": {"test_system": "IMR-90 cells", "settings": "Homo sapiens, 72-hour MTT", "protocol": "as §1, §2"}, "MCF-12A cells": {"test_system": "MCF-12A cells", "settings": "Homo sapiens, 72-hour MTT", "protocol": "as §1, §2"}, "MCF7 cells": {"test_system": "MCF7 cells", "settings": "Homo sapiens, 72-hour MTT", "protocol": "as §1, §2"}, "MDA-MB-175 cells": {"test_system": "MDA-MB-175 cells", "settings": "72-hour MTT", "protocol": "as §1, §2"}, "MHCC97H cells": {"test_system": "MHCC97H cells", "settings": "Homo sapiens, 72-hour MTT", "protocol": "as §1, §2"}, "MINO cells": {"test_system": "MINO cells", "settings": "Homo sapiens, 72-hour MTT", "protocol": "as §1, §2"}, "MOLT4 cells": {"test_system": "MOLT4 cells", "settings": "Homo sapiens, MOLT-4, 72-hour MTT", "protocol": "as §1, §2"}, "MV-4-11 cells": {"test_system": "MV-4-11 cells", "settings": "Homo sapiens, MV4-11, 72-hour MTT", "protocol": "as §1, §2"}, "NCI-H1563 cells": {"test_system": "NCI-H1563 cells", "settings": "Homo sapiens, 72-hour MTT", "protocol": "as §1, §2"}, "NCI-H1650 cells": {"test_system": "NCI-H1650 cells", "settings": "Homo sapiens, 72-hour MTT", "protocol": "as §1, §2"}, "NCI-H2170 cells": {"test_system": "NCI-H2170 cells", "settings": "Homo sapiens, 72-hour MTT", "protocol": "as §1, §2"}, "NCI-H69 cells": {"test_system": "NCI-H69 cells", "settings": "Homo sapiens, 72-hour MTT", "protocol": "as §1, §2"}, "NCI-H889 cells": {"test_system": "NCI-H889 cells", "settings": "Homo sapiens, 72-hour MTT", "protocol": "as §1, §2"}, "NHEK cells": {"test_system": "NHEK cells", "settings": "72-hour MTT", "protocol": "as §1, §2"}, "PBMC": {"test_system": "PBMC", "settings": "72-hour MTT", "protocol": "as §1, §2"}, "Panc-1 cells": {"test_system": "Panc-1 cells", "settings": "Homo sapiens, 72-hour MTT", "protocol": "as §1, §2"}, "RL cells": {"test_system": "RL cells", "settings": "Homo sapiens, 72-hour MTT", "protocol": "as §1, §2"}, "Raji cells": {"test_system": "Raji cells", "settings": "Homo sapiens, 72-hour MTT", "protocol": "as §1, §2"}, "SHP-77 cells": {"test_system": "SHP-77 cells", "settings": "Homo sapiens, SHP77, 72-hour MTT", "protocol": "as §1, §2"}, "SK-CO-1 cells": {"test_system": "SK-CO-1 cells", "settings": "Homo sapiens, 72-hour MTT", "protocol": "as §1, §2"}, "SW-403 cells": {"test_system": "SW-403 cells", "settings": "Homo sapiens, 72-hour MTT", "protocol": "as §1, §2"}, "SW-480 cells": {"test_system": "SW-480 cells", "settings": "Homo sapiens, SW480, 72-hour MTT", "protocol": "as §1, §2"}, "TF-1 cells": {"test_system": "TF-1 cells", "settings": "Homo sapiens, 72-hour MTT", "protocol": "as §1, §2"}, "TFK-1 cells": {"test_system": "TFK-1 cells", "settings": "72-hour MTT", "protocol": "as §1, §2"}, "THP1 cells": {"test_system": "THP1 cells", "settings": "Homo sapiens, THP-1, 72-hour MTT", "protocol": "as §1, §2"}},
  "data": [
    {"smiles": "Nc1ccc(/C=C/C(=O)NCc2cc3cc(-c4ccc(C(=O)N5CCC(F)(F)CC5)cn4)cc(C(F)(F)F)c3o2)cn1", "note": "[Compound 585, (E)-3-(6-aminopyridin-3-yl)-N-((5-(5-(4,4-difluoropiperidine-1-carbonyl)pyridin-2-yl)-7-(trifluoromethyl)benzofuran-2-yl)methyl)acrylamide]", "values": [
      {"measurement": "IC50", "setting": "A549 cells", "value": 570, "unit": "nM"},
      {"measurement": "IC50", "setting": "ANBL-6 cells", "value": 1010, "unit": "nM"},
      {"measurement": "IC50", "setting": "ARPE-19 cells", "value": 780, "unit": "nM"},
      {"measurement": "IC50", "setting": "BL-40 cells", "value": 300, "unit": "nM"},
      {"measurement": "IC50", "setting": "BT-474 cells", "value": 6470, "unit": "nM"},
      {"measurement": "IC50", "setting": "Calu-3 cells", "value": 330, "unit": "nM"},
      {"measurement": "IC50", "setting": "DoHH-2 cells", "value": 90, "unit": "nM"},
      {"measurement": "IC50", "setting": "HCC-1143 cells", "value": 210, "unit": "nM"},
      {"measurement": "IC50", "setting": "HCC-1428 cells", "value": 4400, "unit": "nM"},
      {"measurement": "IC50", "setting": "HCC-202 cells", "value": 1690, "unit": "nM"},
      {"measurement": "IC50", "setting": "HCC-2935 cells", "value": 4390, "unit": "nM"},
      {"measurement": "IC50", "setting": "HCT116 cells", "value": 9820, "unit": "nM"},
      {"measurement": "IC50", "setting": "HEL.92.1.7 cells", "value": 120, "unit": "nM"},
      {"measurement": "IC50", "setting": "HT1080 cells", "value": 210, "unit": "nM"},
      {"measurement": "IC50", "setting": "HeLa cells", "value": 60, "unit": "nM"},
      {"measurement": "IC50", "setting": "Hs738.st cells", "value": 450, "unit": "nM"},
      {"measurement": "IC50", "setting": "IMR-90 cells", "value": 4000, "unit": "nM"},
      {"measurement": "IC50", "setting": "MCF-12A cells", "value": 380, "unit": "nM"},
      {"measurement": "IC50", "setting": "MCF7 cells", "value": 700, "unit": "nM"},
      {"measurement": "IC50", "setting": "MDA-MB-175 cells", "value": "> 10000", "unit": "nM"},
      {"measurement": "IC50", "setting": "MHCC97H cells", "value": "> 10000", "unit": "nM"},
      {"measurement": "IC50", "setting": "MINO cells", "value": 110, "unit": "nM"},
      {"measurement": "IC50", "setting": "MOLT4 cells", "value": 40, "unit": "nM"},
      {"measurement": "IC50", "setting": "MV-4-11 cells", "value": 90, "unit": "nM"},
      {"measurement": "IC50", "setting": "NCI-H1563 cells", "value": 390, "unit": "nM"},
      {"measurement": "IC50", "setting": "NCI-H1650 cells", "value": 530, "unit": "nM"},
      {"measurement": "IC50", "setting": "NCI-H2170 cells", "value": 1260, "unit": "nM"},
      {"measurement": "IC50", "setting": "NCI-H69 cells", "value": 80, "unit": "nM"},
      {"measurement": "IC50", "setting": "NCI-H889 cells", "value": 60, "unit": "nM"},
      {"measurement": "IC50", "setting": "NHEK cells", "value": 10400, "unit": "nM"},
      {"measurement": "IC50", "setting": "PBMC", "value": 2200, "unit": "nM"},
      {"measurement": "IC50", "setting": "Panc-1 cells", "value": 840, "unit": "nM"},
      {"measurement": "IC50", "setting": "RL cells", "value": 210, "unit": "nM"},
      {"measurement": "IC50", "setting": "Raji cells", "value": 90, "unit": "nM"},
      {"measurement": "IC50", "setting": "SHP-77 cells", "value": 210, "unit": "nM"},
      {"measurement": "IC50", "setting": "SK-CO-1 cells", "value": 1190, "unit": "nM"},
      {"measurement": "IC50", "setting": "SW-403 cells", "value": 380, "unit": "nM"},
      {"measurement": "IC50", "setting": "SW-480 cells", "value": 480, "unit": "nM"},
      {"measurement": "IC50", "setting": "TF-1 cells", "value": 60, "unit": "nM"},
      {"measurement": "IC50", "setting": "TFK-1 cells", "value": 1030, "unit": "nM"},
      {"measurement": "IC50", "setting": "THP1 cells", "value": 20, "unit": "nM"}
    ]}
  ]
}
